The text below walks through data of US8207136B2, “Nucleoside compounds and methods of use thereof” (The Board of Trustees of the University of Illinois, priority 2005, dated 2012).

Data set [1] has as its system RNA polymerase II transcription. Description: Nuclear run-on assay, nuclei from treated HCT-116 cells. Format: cell-based, human. The note with it: HCT-116 cells treated 2 hours with 1 mM. The protocol: (§1) Run-on assays with isolated nuclei were performed as described. Briefly, cells treated with the indicated agents were lysed with hypotonic buffer (10 mM Tris-HCl pH 7.4, 10 mM NaCl and 35 mM MgCl2) and nuclei collected by centrifugation and resuspended in nuclear storage buffer (50 mM HEPES pH 8.0, 5 mM MgCl2, 0.5 mM DTT, 1 mg/ml BSA and 25% (v/v) glycerol) at about 5×10^8 nuclei/ml and stored at −80° C. Transcription reactions were performed in 200 μl volume consisting of 1×10^7 nuclei in the presence of 0.12 M KCl, 7 mM Mg(Ac)2, 25 μCi of [^32P]GTP, 500 μM ATP, UTP and CTP at 30° C. Samples were collected at various time points (18 μl/time point—0, 5, 10, 20 and 30 min) and the reaction terminated by the addition of 57 μl of Sarkosyl solution (1% Sarkosyl, 0.1 M Tris pH 8.0, 0.1 M NaCl, 10 mM EDTA and 200 μg/ml tRNA). The stopped reactions were transferred to Whatman DE81 paper, and washed four times with wash buffer (5% K2HPO4 and 0.3% Na4P2O7) for 10 min, followed by a 5-min water wash. Then the paper was briefly rinsed with 95% ethanol and allowed to dry completely. Radiation was quantitated using a liquid scintillation counter.
Some transcriptional inhibitors such as DRB and flavopiridol repress p21 and hdm2 while increasing p53 levels. […] To evaluate this activity, HCT-116 cells were treated with one of DMSO (control), ARC or DRB, and nuclei were isolated. These nuclei were assayed for rate of transcription either in the presence or absence of α-amanitin using the nuclear run-on assay. […] If ARC inhibits polymerase I and III transcription, the rate of transcription should be substantially lower in the ARC+α-amanitin (FIG. 2A; curve 5) when compared with DMSO+α-amanitin (FIG. 2A; curve 4). However both of these rates of transcription were similar, implying that ARC might preferentially affect only RNA polymerase II transcription.

The target in the next data set is T1, RNA polymerase II (Homo sapiens, UniProt P24928).
T1 construct: nuclei were isolated from normally growing untreated HCT-116 cells and treated with each of these agents; endogenous in cells; host or cells: nuclei of HCT-116 colon cancer cells
Put plainly: Nuclear run-on assay, nuclei isolated from untreated HCT-116 cells then treated. Format: biochemical. The note with it: 50 μM ARC, 50 μM DRB or 2 μg/ml α-amanitin. On the procedure: as §1
In order to evaluate the ability of ARC to bind to and inhibit RNA polymerase II directly (like α-amanitin) or indirectly (like DRB), nuclei were isolated from normally growing untreated HCT-116 cells and treated with each of these agents, and then assayed for rate of transcription by nuclear run-on assay.

The test system of data set [2] is leukemia cell lines CEM, HL-60, NB4 and U937. Description: TMRE staining and flow cytometry of leukemia cells. Format: cell-based. As to conditions: 5 μM, 24 hours. The protocol:
FIG. 7. ARC induces mitochondrial injury in leukemia cells. Different leukemia cells were either treated with DMSO (gray) or 5 μM ARC (white) for 24 hours, stained with TMRE (tetramethyl rhodamine ethyl ester) and subjected to flow cytometry. CEM cells are shown in panel (A), HL-60 in panel (B), NB4 in panel (C) and U937 in panel (D). The shift in the peak from right (DMSO; gray) to left (ARC-treated; white) is due to the lower intake of the dye caused by the loss in mitochondrial potential.
(§2) In order to further probe the mechanism of ARC-induced apoptosis, whether or not ARC causes mitochondrial injury was investigated. Permeabilization of mitochondria, followed by cytochrome c release has previously been observed for transcriptional inhibitor flavopiridol. For this analysis, leukemia cell lines CEM, HL-60, NB4 and U937 were treated with either DMSO or ARC. […] It is well known that the Bcl2 family members (eg., Bcl-2, Bcl-XL, Mcl-1) protect the mitochondrial integrity, thereby acting in an anti-apoptotic manner. It is possible that ARC modulates the expression of one or more of these proteins to cause mitochondrial injury.
(In flow cytometry, cells or beads pass a laser one at a time.)

Data set [3] has as its system LIM1215 colon cancer cells. Description: Apoptosis by PI staining and flow cytometry in LIM1215 cells. Type of data set: cell-based, human. On the procedure:
For Flow Cytometry, cells were fixed in 70% ethanol and stored at −20° C. until further analysis. Equal numbers of fixed cells were then stained with PI solution (0.1% Triton X-100, 0.2 mg/ml DNase free RNase, 0.02 mg/ml propidium iodide) made in PBS for 15 min at 37° C. and analyzed by a flow cytometer.
In order to evaluate the extent to which ARC induces apoptosis relative to that of the other known nucleoside analog DRB, LIM1215 colon cancer cells were treated with either ARC or DRB for 48 hours.

Data set [4] can be described thus: Preliminary toxicity studies (NCI/DTP) in mice. Format: in vivo. As to conditions: as high as 200 mg/Kg, 5-day period, B6D2FI mice. From the text: Similarly, p21 may also act in an anti-apoptotic fashion by inducing cell-cycle arrest or by inhibiting pro-apoptotic molecules such as procaspase-3 and apoptosis signal-regulating kinasel (ASK1). […] The fact that ARC represses both survivin and p21 makes a strong case for consideration of ARC as a potential anti-tumor agent. This is further supported by the observation that ARC was >10-fold more efficient in inducing apoptosis than the other nucleoside analog DRB (FIG. 5F). This is especially intriguing because, as shown herein, ARC and DRB repress global transcription to similar extent (FIG. 2A). […] Preliminary toxicity studies from NCI/DTP indicate that concentrations as high as 200 mg/Kg were non-toxic to B6D2FI mice during a 5-day period.

The subject of another data set is Mcl-1, Bcl-2. Description: Immunoblot of Bcl-2 and Mcl-1 levels. Format: cell-based. The protocol:
FIG. 8. ARC downregulates Mcl-1 levels in different cancer cells. (A) U937 leukemia cells were treated with different concentrations of ARC as indicated for 24 hours and the cell lysates were probed for Mcl-1 levels. (B) Neuroblastoma cell lines were treated either with DMSO or 1 μM ARC for 24 hours and levels of Mcl-1 were assessed by immunoblotting.
as §2

The target in another data set is T2, P-TEFb (Cdk9/Cyclin T1) (Homo sapiens, UniProt P50750).
T2 construct: gift from Dr. Nekhai (Howard University)
T2 sequence (P50750 whole entry, species assumed): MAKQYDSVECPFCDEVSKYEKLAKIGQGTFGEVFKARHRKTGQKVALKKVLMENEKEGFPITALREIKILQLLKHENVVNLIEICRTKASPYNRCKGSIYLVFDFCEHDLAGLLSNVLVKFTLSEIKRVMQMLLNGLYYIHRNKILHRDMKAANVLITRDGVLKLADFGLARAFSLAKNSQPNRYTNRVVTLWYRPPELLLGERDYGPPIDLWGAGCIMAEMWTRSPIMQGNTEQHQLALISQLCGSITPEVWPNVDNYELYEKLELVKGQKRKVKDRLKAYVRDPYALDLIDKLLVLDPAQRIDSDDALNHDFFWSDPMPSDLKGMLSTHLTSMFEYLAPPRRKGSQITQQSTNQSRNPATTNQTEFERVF
T2 sequence (O60563 whole entry partner, species assumed): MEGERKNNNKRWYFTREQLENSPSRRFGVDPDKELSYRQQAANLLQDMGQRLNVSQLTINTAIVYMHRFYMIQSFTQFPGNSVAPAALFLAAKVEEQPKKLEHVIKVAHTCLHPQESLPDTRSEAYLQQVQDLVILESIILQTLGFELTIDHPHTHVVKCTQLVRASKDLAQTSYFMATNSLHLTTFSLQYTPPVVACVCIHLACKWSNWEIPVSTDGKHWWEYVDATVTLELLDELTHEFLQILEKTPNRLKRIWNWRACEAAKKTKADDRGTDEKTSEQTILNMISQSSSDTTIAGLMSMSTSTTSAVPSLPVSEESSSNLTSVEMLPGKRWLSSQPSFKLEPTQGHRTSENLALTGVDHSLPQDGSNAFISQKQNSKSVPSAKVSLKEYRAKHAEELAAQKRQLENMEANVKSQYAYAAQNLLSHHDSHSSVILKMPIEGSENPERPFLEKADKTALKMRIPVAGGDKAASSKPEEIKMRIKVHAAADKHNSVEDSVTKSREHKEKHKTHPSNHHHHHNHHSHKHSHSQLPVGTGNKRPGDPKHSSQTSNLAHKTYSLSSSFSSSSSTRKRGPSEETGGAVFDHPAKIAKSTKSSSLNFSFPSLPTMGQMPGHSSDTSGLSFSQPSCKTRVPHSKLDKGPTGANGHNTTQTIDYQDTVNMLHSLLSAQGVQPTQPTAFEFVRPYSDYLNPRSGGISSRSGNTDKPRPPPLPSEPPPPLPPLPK
Description: P-TEFb kinase assay with p53 as substrate. Type of data set: biochemical. The note with it: different concentrations, 30° C., 30 min. The protocol:
For P-TEFb kinase assays with p53 as a substrate, purified p53 protein (Protein One) was used. Twenty-five nanograms of p53 protein along with [γ^32P]ATP was used in reactions either in the presence or absence of P-TEFb, with or without the addition of ARC. The reaction was carried out at 30° C. for 30 min. The samples were resolved on an SDS-PAGE and transferred on to a PVDF membrane and exposed to X-ray film to detect phosphorylation of p53.
In order to evaluate this activity, an in vitro kinase assay was performed with purified p53 protein and P-TEFb in the presence of different concentrations of ARC.

Where only a bound is given, the exact number is not on record here.

On to `NNc1c(C(N)=O)c2c(N)ncnc2n1[C@@H]1O[C@H](CO)[C@@H](O)[C@H]1O` [ARC, 4-amino-6-hydrazino-7-beta-D-ribofuranosyl-7H-pyrrolo[2,3-d]-pyrimidine-5-carboxamide], for which the “rate of transcription versus control nuclei” value in data set [1] is recorded as “lower”. Moreover, the “rate of transcription in the presence of α-amanitin versus DMSO+α-amanitin” value in data set [1] (2 μg/ml α-amanitin) is listed as “similar”. On RNA polymerase II, the “rate of transcription, agent added to isolated nuclei” value is on record as “did not affect the rate of transcription”. The “mitochondrial potential (TMRE)” value in data set [2] is listed as “mitochondrial depolarization”. In data set [3] (5 μM, 48 hours), the “apoptosis (PI staining, flow cytometry)” value is on record as 37.8%. In data set [3] (LIM1215 cells (FIG. 5F)), the “efficiency in inducing apoptosis relative to DRB” value is > 10 fold. The toxicity entry in data set [4] was “non-toxic”. Further, in the data set on Mcl-1, Bcl-2 (U937 leukemia and neuroblastoma cell lines, 24 hours), the Mcl-1 levels entry is on record as “drastically reduced”. Moreover, the Bcl-2 levels result with Mcl-1, Bcl-2 (data not shown) was “no changes in the levels of Bcl-2”. The “phosphorylation of p53 by P-TEFb” value at P-TEFb (Cdk9/Cyclin T1) was “decreased in a dose-dependent manner”.
